From patent US20200289456A1, “METHODS FOR INHIBITING TUMORS AND DRUG RESISTANCE” (SEQUOIA PHARMACEUTICALS, INC., priority 2015, published 2020)

Test system: tumors expressing high levels of CYP3A4
Test: Combination of Docataxel and an ICI in patients (21 day treatment cycle)
Format: in vivo
Experimental: The compound of formula IA (150 mg po qd) is administered to patients for the first 3 days of a 21 day treatment cycle. Escalating doses of Docataxel are administered IV beginning on day 4. Docataxel is dose-escalated at 15, 25, 40, and 50 mg/m^2, where the standard dose is 75 mg/m^2.

**Q.** For `CCCCCCN(CCCN(CC(C)C)S(=O)(=O)c1ccc2occc2c1)C(=O)OC(C)(C)C` [IA], which “cancer cell kill in tumors expressing high levels of CYP3A4” value (IA 150 mg po qd days 1-3, Docataxel IV from day 4) is on record?
**A.** improves cancer cell kill

**Q.** And the “toxicity of Docataxel” value (IA 150 mg po qd days 1-3, lower dose of docataxel and lower Cmax while maintaining AUC)?
**A.** diminishes toxicity

**Q.** And the “variability in AUC and drug response of Docataxel” value (IA 150 mg po qd days 1-3 of 21 day cycle, Docataxel IV from day 4, 15-50 mg/m^2)?
**A.** decreases variability in AUC and drug response
